Structures can show the parent of a compound that is named as a salt.
Test system: CD4+ CCR4+ T cells
Test: Chemokine stimulated increases in cellular F-actin content
Assay type: cell-based
Conditions: Homo sapiens, T-cell, 0.5 h; PBMC from normal volunteers; antagonist 30 min at 37° C. before agonist for 15 sec; F-actin content by flow cytometry; read-out: pA2 (converted)
Method in brief: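 Human PBMC from citrated volunteer blood, stained for CD4 and CCR4, were pre-incubated with antagonist or vehicle (0.1% DMSO) for 30 min at 37 °C, then stimulated with agonist for 15 s and formaldehyde-fixed. F-actin was stained with phalloidin and read by flow cytometry as CD4+CCR4+ MFI relative to CD4+CCR4− cells.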

Compound | Kb
COc1cccc2c1c(NS(=O)(=O)c1ccc(Cl)s1)nn2Cc1cccc(CNC(=O)[C@@H]2COCCN2)c1 [Example 8, (3S)—N-[(3-{[3-{[(5-Chloro-2-thienyl)sulfonyl]amino}-4-(methyloxy)-1H-indazol-1-yl]methyl}phenyl)methyl]-3-morpholinecarboxamide hydrochloride] | ≤ 126 nM
CN[C@H](C)C(=O)NCc1cccc(Cn2nc(NS(=O)(=O)c3ccc(Cl)s3)c3c(O)cccc32)c1 [Example 71, N^1-({3-[(3-{[(5-Chloro-2-thienyl)sulfonyl]amino}-4-hydroxy-1H-indazol-1-yl)methyl]phenyl}methyl)-N^2-methyl-D-alaninamide formic acid salt] | ≤ 126 nM
CNCC(=O)NCc1cccc(Cn2nc(NS(=O)(=O)c3ccc(Cl)s3)c3c(OC)cccc32)c1 [Example 12, N^1-[(3-{[3-{[(5-chloro-2-thienyl)sulfonyl]amino}-4-(methyloxy)-1H-indazol-1-yl]methyl}phenyl)methyl]-N^2-methylglycinamide hydrochloride] | ≤ 126 nM

Target: T1, CCR4 (Homo sapiens, UniProt P51679)
T1 construct: expressed in transfected cells; host or cells: CHO cell membranes
T1 sequence (P51679 1-360): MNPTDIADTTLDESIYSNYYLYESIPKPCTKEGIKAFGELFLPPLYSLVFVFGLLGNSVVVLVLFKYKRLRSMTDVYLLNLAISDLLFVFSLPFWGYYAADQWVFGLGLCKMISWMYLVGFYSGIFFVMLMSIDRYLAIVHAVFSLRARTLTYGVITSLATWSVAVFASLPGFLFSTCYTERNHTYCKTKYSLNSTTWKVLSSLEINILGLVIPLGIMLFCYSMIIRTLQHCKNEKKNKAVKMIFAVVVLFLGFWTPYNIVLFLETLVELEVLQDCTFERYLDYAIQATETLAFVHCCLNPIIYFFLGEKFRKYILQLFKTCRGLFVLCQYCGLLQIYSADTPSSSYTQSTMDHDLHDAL
Test: [35S]-GTPγS SPA binding assay for CCR4 antagonist activity
Assay type: biochemical
Conditions: CCR4 expressing CHO membranes; human MDC at EC80; [35S]-GTPγS competition
Procedure: [35S]-GTPγS SPA Binding Assays for CCR4 Antagonist Activity
Antagonist potency was determined by a radioligand [35S]-GTPγS competition assay. Briefly, CCR4 expressing CHO membranes were homogenised by passing through a 23G needle. These membranes were then adhered to WGA-coated Leadseeker SPA beads in assay buffer (20 mM HEPES, 10 mM MgCl2, 100 mM NaCl, 0.05% BSA, 40 ug/ml Saponin and pH adjusted to 7.4 using KOH 5M) to generate a 3 μg/well final assay concentration (FAC) membrane and 250 μg/well FAC bead, solution.
The bead/membrane/[35S]-GTPγS/Agonist suspension was dispensed into white Greiner polypropylene 384-well plates (45 μl/well), containing 0.5 μl of compound. […] Plates were then read on a Viewlux instrument and luminescence was then plotted as a percentage of the maximum inhibitional response elicited by an IC100 of a standard antagonist.

Compound | IC50
COc1cccc2c1c(NS(=O)(=O)c1cccs1)nn2Cc1cccc(CNC(C)=O)c1 [Example 116, N-{[3-({4-(Methyloxy)-3-[(2-thienylsulfonyl)amino]-1H-indazol-1-yl}methyl)phenyl]methyl}acetamide] | 100 to 398 nM
COc1cccc2c1c(NS(=O)(=O)c1ccc(C)s1)nn2Cc1ccc(CNC(=O)[C@H]2COCCN2)cc1 [Example 120, (3R)—N-({4-[(4-(methyloxy)-3-{[(5-methyl-2-thienyl)sulfonyl]amino}-1H-indazol-1-yl)methyl]phenyl}methyl)-3-morpholinecarboxamide trifluoroacetate] | 100 to 398 nM
COc1cccc2c1c(NS(=O)(=O)c1ccc(Cl)s1)nn2Cc1cccc(CNC(=O)C[C@H](N)C(=O)O)c1 [Example 80, N^4-[(3-{[3-{[(5-Chloro-2-thienyl)sulfonyl]amino}-4-(methyloxy)-1H-indazol-1-yl]methyl}phenyl)methyl]-L-asparagine trifluoroacetate] | 3.98 to 15.8 nM
COc1cccc2c1c(NS(=O)(=O)c1ccc(Cl)s1)nn2Cc1cccc(CNC(=O)CCCCC(=O)O)c1 [Example 140, 6-{[(3-{[3-{[(5-Chloro-2-thienyl)sulfonyl]amino}-4-(methyloxy)-1H-indazol-1-yl]methyl}phenyl)methyl]amino}-6-oxohexanoic acid] | 3.98 to 15.8 nM
COc1cccc2c1c(NS(=O)(=O)c1ccc(Cl)s1)nn2Cc1cccc(CNC(=O)CCCC(=O)O)c1 [Example 139, 5-{[(3-{[3-{[(5-Chloro-2-thienyl)sulfonyl]amino}-4-(methyloxy)-1H-indazol-1-yl]methyl}phenyl)methyl]amino}-5-oxopentanoic acid] | 3.98 to 15.8 nM
CC(C)(O)c1cccc2c1c(NS(=O)(=O)c1ccc(Cl)s1)nn2Cc1cccc(CNC(=O)[C@@H]2COCCN2)c1 [Example 156, (3S)—N-[(3-{[3-{[(5-Chloro-2-thienyl)sulfonyl]amino}-4-(1-hydroxy-1-methylethyl)-1H-indazol-1-yl]methyl}phenyl)methyl]-3-morpholinecarboxamide] | 100 to 398 nM
COc1cccc2c1c(NS(=O)(=O)c1ccc(Cl)s1)nn2Cc1cccc(CNC(=O)[C@@H](N)Cc2c[nH]c3ccccc23)c1 [Example 114, N-[(3-{[3-{[(5-Chloro-2-thienyl)sulfonyl]amino}-4-(methyloxy)-1H-indazol-1-yl]methyl}phenyl)methyl]-L-tryptophanamide] | 3.98 to 15.8 nM
COc1cccc2c1c(NS(=O)(=O)c1ccc(Cl)s1)nn2Cc1cccc(CNC(=O)c2ccc(C(=O)O)cc2)c1 [Example 142, 4-({[(3-{[3-{[(5-Chloro-2-thienyl)sulfonyl]amino}-4-(methyloxy)-1H-indazol-1-yl]methyl}phenyl)methyl]amino}carbonyl)benzoic acid] | 3.98 to 15.8 nM
CNCC(=O)NCc1cccc(Cn2nc(NS(=O)(=O)c3ccc(Cl)s3)c3c(OC)cccc32)c1 [Example 85, N^1-[(3-{[3-{[(5-Chloro-2-thienyl)sulfonyl]amino}-4-(methyloxy)-1H-indazol-1-yl]methyl}phenyl)methyl]-N^2-methylglycinamide trifluoroacetate] | 3.98 to 15.8 nM
COc1cc(F)cc2c1c(NS(=O)(=O)c1ccc(Cl)s1)nn2Cc1cccc(CNC(=O)C2COCCN2C)c1 (centres unmarked) [Example 133, N-[(3-{[3-{[(5-Chloro-2-thienyl)sulfonyl]amino}-6-fluoro-4-(methyloxy)-1H-indazol-1-yl]methyl}phenyl)methyl]-4-methyl-3-morpholinecarboxamide] | 3.98 to 15.8 nM
COc1cccc2c1c(NS(=O)(=O)c1ccc(Cl)s1)nn2Cc1cccc(CNC(=O)[C@@H](N)CO)c1 [Example 102, N^1-[(3-{[3-{[(5-Chloro-2-thienyl)sulfonyl]amino}-4-(methyloxy)-1H-indazol-1-yl]methyl}phenyl)methyl]-L-serinamide] | 3.98 to 15.8 nM
CC(O)c1cccc2c1c(NS(=O)(=O)c1ccc(Cl)s1)nn2Cc1cccc(CNC(=O)[C@@H]2COCCN2)c1 (stereo partly drawn) [Example 153, (3S)—N-[(3-{[3-{[(5-Chloro-2-thienyl)sulfonyl]amino}-4-(1-hydroxyethyl)-1H-indazol-1-yl]methyl}phenyl)methyl]-3-morpholinecarboxamide formate salt] | 3.98 to 15.8 nM

Second part, the compound after the results:

IC50 | Compound
3.98 to 15.8 nM | CC(=O)NCc1cccc(Cn2nc(NS(=O)(=O)c3ccc(Cl)s3)c3c(CO)cccc32)c1 [Example 148, N-[(3-{[3-{[(5-Chloro-2-thienyl)sulfonyl]amino}-4-(hydroxymethyl)-1H-indazol-1-yl]methyl}phenyl)methyl]acetamide]
3.98 to 15.8 nM | COc1cccc2c1c(NS(=O)(=O)c1ccc(Cl)s1)nn2Cc1cccc(CNC(=O)[C@@H]2COCCN2)c1 [Example 8, (3S)—N-[(3-{[3-{[(5-Chloro-2-thienyl)sulfonyl]amino}-4-(methyloxy)-1H-indazol-1-yl]methyl}phenyl)methyl]-3-morpholinecarboxamide hydrochloride]
3.98 to 15.8 nM | CN[C@H](C)C(=O)NCc1cccc(Cn2nc(NS(=O)(=O)c3ccc(Cl)s3)c3c(O)cccc32)c1 [Example 71, N^1-({3-[(3-{[(5-Chloro-2-thienyl)sulfonyl]amino}-4-hydroxy-1H-indazol-1-yl)methyl]phenyl}methyl)-N^2-methyl-D-alaninamide formic acid salt]
3.98 to 15.8 nM | COc1c(F)ccc2c1c(NS(=O)(=O)c1ccc(Cl)s1)nn2Cc1cccc(CNC(C)=O)c1 [Example 134, N-[(3-{[3-{[(5-Chloro-2-thienyl)sulfonyl]amino}-5-fluoro-4-(methyloxy)-1H-indazol-1-yl]methyl}phenyl)methyl]acetamide]
3.98 to 15.8 nM | CC(O)c1cccc2c1c(NS(=O)(=O)c1ccc(Cl)s1)nn2Cc1cccc(CNC(=O)C(C)(C)O)c1 (centres unmarked) [Example 151, N-[(3-{[3-{[(5-Chloro-2-thienyl)sulfonyl]amino}-4-(1-hydroxyethyl)-1H-indazol-1-yl]methyl}phenyl)methyl]-2-hydroxy-2-methylpropanamide]
3.98 to 15.8 nM | COc1cccc2c1c(NS(=O)(=O)c1ccc(Cl)s1)nn2Cc1cccc(CNC(=O)[C@H]2CC[C@H](C(=O)O)CC2)c1 [Example 143, trans-4-({[(3-{[3-{[(5-Chloro-2-thienyl)sulfonyl]amino}-4-(methyloxy)-1H-indazol-1-yl]methyl}phenyl)methyl]amino}carbonyl)cyclohexanecarboxylic acid]
3.98 to 15.8 nM | COc1cccc2c1c(NS(=O)(=O)c1ccc(Cl)s1)nn2Cc1cccc(CNC(=O)CCCCCCC(=O)O)c1 [Example 144, 8-{[(3-{[3-{[(5-Chloro-2-thienyl)sulfonyl]amino}-4-(methyloxy)-1H-indazol-1-yl]methyl}phenyl)methyl]amino}-8-oxooctanoic acid]
3.98 to 15.8 nM | COc1cccc2c1c(NS(=O)(=O)c1ccc(Cl)s1)nn2Cc1cccc(CNC(=O)C(C)(C)N)c1 [Example 127, N^1-[(3-{[3-{[(5-Chloro-2-thienyl)sulfonyl]amino}-4-(methyloxy)-1H-indazol-1-yl]methyl}phenyl)methyl]-2-methylalaninamide]
3.98 to 15.8 nM | CC(O)c1cccc2c1c(NS(=O)(=O)c1ccc(Cl)s1)nn2Cc1cccc(CNC(=O)[C@H]2COCCN2)c1 (stereo partly drawn) [Example 152, (3R)—N-[(3-{[3-{[(5-Chloro-2-thienyl)sulfonyl]amino}-4-(1-hydroxyethyl)-1H-indazol-1-yl]methyl}phenyl)methyl]-3-morpholinecarboxamide formate salt]
3.98 to 15.8 nM | COc1cccc2c1c(NS(=O)(=O)c1ccc(Cl)s1)nn2Cc1cccc(CNC(=O)CCC(=O)O)c1 [Example 138, 4-{[(3-{[3-{[(5-Chloro-2-thienyl)sulfonyl]amino}-4-(methyloxy)-1H-indazol-1-yl]methyl}phenyl)methyl]amino}-4-oxobutanoic acid]
3.98 to 15.8 nM | CC(=O)NCc1cccc(Cn2nc(NS(=O)(=O)c3ccc(Cl)s3)c3c(C(C)O)cccc32)c1 (centres unmarked) [Example 149, N-[(3-{[3-{[(5-Chloro-2-thienyl)sulfonyl]amino}-4-(1-hydroxyethyl)-1H-indazol-1-yl]methyl}phenyl)methyl]acetamide]

Reference: US8304446B2, “Compounds” (Glaxo Group Limited, priority 2009, dated 2012)
